Where a name gives a salt, the structure may show the parent alone.
What was measured:
human GLP-1R [1] = molecular target: T1, human GLP-1R (Homo sapiens, UniProt P43220, L260F); assay: CHO GLP-1R Clone C6 - Assay 2 (HTRF cAMP agonist assay); format: cell-based; conditions: for EC50: CHO clone C6, low GLP-1R density, cAMP, geometric mean; for Emax: CHO clone C6, relative to saturating full agonist GLP-1 (1 μM), arithmetic mean
T1 construct: expressed in transfected cells; host or cells: CHO Flp-In T-REx, clonal line C6 (pcDNA5-FRT-TO)

human GLP-1R [2] = molecular target: T2, human GLP-1R (Homo sapiens, UniProt P43220, G168S); assay: CHO GLP-1R Clone H6 - Assay 1 (HTRF cAMP agonist assay); format: cell-based; conditions: for EC50: CHO Clone H6, high GLP-1R density, cAMP, geometric mean; for Emax: CHO Clone H6, relative to saturating full agonist GLP-1 7-36 (1 μM), arithmetic mean
T2 construct: expressed in transfected cells
In short: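 CHO Clone H6 cells stably expressing human GLP-1R (G168S) were plated 48 h, then given compound for 30 min at 37° C in HBSS/0.1% BSA/HEPES with 100 μM IBMX and 1% DMSO. cAMP was measured by HTRF against a standard curve.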

T1 sequence (P43220 24-463 L260F): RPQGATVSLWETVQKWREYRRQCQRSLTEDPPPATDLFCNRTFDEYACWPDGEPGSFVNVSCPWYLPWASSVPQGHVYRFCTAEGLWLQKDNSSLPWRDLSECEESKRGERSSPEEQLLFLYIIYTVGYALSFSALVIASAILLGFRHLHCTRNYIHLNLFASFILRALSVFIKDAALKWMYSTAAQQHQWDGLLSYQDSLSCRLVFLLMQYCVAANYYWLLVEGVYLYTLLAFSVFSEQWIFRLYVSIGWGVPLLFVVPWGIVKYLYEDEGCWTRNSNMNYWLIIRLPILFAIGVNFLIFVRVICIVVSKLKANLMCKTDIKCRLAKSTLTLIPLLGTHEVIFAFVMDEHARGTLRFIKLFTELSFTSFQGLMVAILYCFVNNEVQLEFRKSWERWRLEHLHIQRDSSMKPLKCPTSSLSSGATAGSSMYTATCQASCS
T2 sequence (P43220 24-463 G168S): as the sequence (P43220 24-463 L260F) above, with G145S, F237L counted along it

Row | EC50 (human GLP-1R [1]) [nM] | Emax (human GLP-1R [1]) [%] | EC50 (human GLP-1R [2]) [nM] | Emax (human GLP-1R [2]) [%] | SMILES
1 | 18 | 110 | 0.91 | 89 | C[C@H]1CN(c2nc(OCc3ccc(Cl)cc3F)ncc2F)CCN1Cc1nc2ccc(C(=O)O)cc2n1C[C@@H]1CCO1 [Example 69, Ammonium 2-{[(2S)-4-{2-[(4-chloro-2-fluorobenzyl)oxy]-5-fluoropyrimidin-4-yl}-2-methylpiperazin-1-yl]methyl}-1-[(2S)-oxetan-2-ylmethyl]-1H-benzimidazole-6-carboxylate]
2 | 160 | 90 | 8.9 | 82 | C[C@H]1CN(c2nc(OCc3ccc(Cl)cc3F)ncc2F)CCN1Cc1nc2ccc(C(=O)O)cc2n1C[C@@H]1CCCO1 [Example 71, 2-{[(2S)-4-{2-[(4-chloro-2-fluorobenzyl)oxy]-5-fluoropyrimidin-4-yl}-2-methylpiperazin-1-yl]methyl}-1-[(2S)-tetrahydrofuran-2-ylmethyl]-1H-benzimidazole-6-carboxylic acid]
3 | 120 | 130 | 6 | 96 | O=C(O)c1ccc2nc(CN3CCN(c4nc(OCc5ccc(Cl)cc5F)ncc4F)CC3)n(C[C@@H]3CCO3)c2c1 [Example 72, 2-[(4-{2-[(4-chloro-2-fluorobenzyl)oxy]-5-fluoropyrimidin-4-yl}piperazin-1-yl)methyl]-1-[(2S)-oxetan-2-ylmethyl]-1H-benzimidazole-6-carboxylic acid]
4 | 89 | 100 | 2.4 | 84 | C[C@H]1CN(c2ccnc(OCc3ccc(Cl)cc3F)n2)CCN1Cc1nc2ccc(C(=O)O)cc2n1C[C@@H]1CCO1 [Example 73, 2-{[(2S)-4-{2-[(4-chloro-2-fluorobenzyl)oxy]pyrimidin-4-yl}-2-methylpiperazin-1-yl]methyl}-1-[(2S)-oxetan-2-ylmethyl]-1H-benzimidazole-6-carboxylic acid]
5 | 11000 | 96 | 500 | 86 | COCCn1c(CN2CCN(c3ccnc(OCc4ccc(Cl)cc4F)n3)[C@H](C)C2)nc2ccc(C(=O)O)cc21 [Example 74, 2-{[(3R)-4-{2-[(4-chloro-2-fluorobenzyl)oxy]pyrimidin-4-yl}-3-methylpiperazin-1-yl]methyl}-1-(2-methoxyethyl)-1H-benzimidazole-6-carboxylic acid, trifluoroacetate salt]

The remaining lines, values behind:

Row | SMILES | EC50 (human GLP-1R [1]) [nM] | Emax (human GLP-1R [1]) [%] | EC50 (human GLP-1R [2]) [nM] | Emax (human GLP-1R [2]) [%]
6 | O=C(O)c1ccc2nc(C3CC34CCN(c3nc(OCc5ccc(Cl)cc5F)ncc3F)CC4)n(Cc3cocn3)c2c1 (stereo not drawn) [Example 43, 2-(6-{2-[(4-chloro-2-fluorobenzyl)oxy]-5-fluoropyrimidin-4-yl}-6-azaspiro[2.5]oct-1-yl)-1-(1,3-oxazol-4-ylmethyl)-1H-benzimidazole-6-carboxylic acid, trifluoroacetate salt, from P7] | 250 | 70 | 13 | 75
7 | O=C(O)c1ccc2nc(C3CC34CCN(c3nc(OCc5ccc(Cl)cc5F)ncc3F)CC4)n(Cc3cnco3)c2c1 (stereo not drawn) [Example 45, 2-(6-{2-[(4-chloro-2-fluorobenzyl)oxy]-5-fluoropyrimidin-4-yl}-6-azaspiro[2.5]oct-1-yl)-1-(1,3-oxazol-5-ylmethyl)-1H-benzimidazole-6-carboxylic acid, trifluoroacetate salt, from P7] | 230 | 83 | 12 | 72
8 | Cn1c(C2CC23CCN(c2nc(OCc4ccc(C#N)cc4F)c(F)cc2F)CC3)nc2ccc(C(=O)O)cc21 (stereo not drawn) [Example 59, 2-(6-{6-[(4-cyano-2-fluorobenzyl)oxy]-3,5-difluoropyridin-2-yl}-6-azaspiro[2.5]oct-1-yl)-1-methyl-1H-benzimidazole-6-carboxylic acid, trifluoroacetate salt] | 120 | 85 | 6.8 | 80
9 | Cn1cnnc1Cn1c(C2CC23CCN(c2nc(OCc4ccc(Cl)cc4F)c(F)cc2F)CC3)nc2ccc(C(=O)O)cc21 (stereo not drawn) [Example 60, 2-(6-{6-[(4-chloro-2-fluorobenzyl)oxy]-3,5-difluoropyridin-2-yl}-6-azaspiro[2.5]oct-1-yl)-1-[(4-methyl-4H-1,2,4-triazol-3-yl)methyl]-1H-benzimidazole-6-carboxylic acid, trifluoroacetate salt] | 110 | 110 | 5 | 91
10 | N#Cc1ccc(COc2nc(N3CCC4(CC3)CC4c3nc4ccc(C(=O)O)cc4n3Cc3ncco3)c(F)cc2F)c(F)c1 (stereo not drawn) [Example 61, 2-(6-{6-[(4-cyano-2-fluorobenzyl)oxy]-3,5-difluoropyridin-2-yl}-6-azaspiro[2.5]oct-1-yl)-1-(1,3-oxazol-2-ylmethyl)-1H-benzimidazole-6-carboxylic acid, trifluoroacetate salt] | 26 | 74 | 1.1 | 68
11 | O=C(O)c1ccc2nc(CN3CCC(c4ccnc(OCc5ccc(Cl)cc5F)n4)CC3)n(C[C@@H]3CCO3)c2c1 [Example 62, 2-[(4-{2-[(4-Chloro-2-fluorobenzyl)oxy]pyrimidin-4-yl}piperidin-1-yl)methyl]-1-[(2S)-oxetan-2-ylmethyl]-1H-benzimidazole-6-carboxylic acid] | 110 | 98 | 4.4 | 86
12 | CCn1nncc1Cn1c(CN2CCC(c3ccnc(OCc4ccc(Cl)cc4F)n3)CC2)nc2ccc(C(=O)O)cc21 [Example 64, 2-[(4-{2-[(4-chloro-2-fluorobenzyl)oxy]pyrimidin-4-yl}piperidin-1-yl)methyl]-1-[(1-ethyl-1H-1,2,3-triazol-5-yl)methyl]-1H-benzimidazole-6-carboxylic acid] | 100 | 100 | 24 | 96
13 | COCCn1c(CN2CCC(c3ccnc(OCc4ccc(Cl)cc4F)n3)CC2)nc2ccc(C(=O)O)cc21 [Example 65, 2-[(4-{2-[(4-chloro-2-fluorobenzyl)oxy]pyrimidin-4-yl}piperidin-1-yl)methyl]-1-(2-methoxyethyl)-1H-benzimidazole-6-carboxylic acid, hydrochloride salt] | 1700 | 110 | 88 | 85
14 | O=C(O)c1ccc2nc(CN3CCC(c4ccnc(OCc5ccc(Cl)cc5F)n4)CC3)n(C[C@@H]3CCO3)c2n1 [Example 67, ammonium 2-[(4-{2-[(4-chloro-2-fluorobenzyl)oxy]pyrimidin-4-yl}piperidin-l-yl)methyl]-3-[(2S)-oxetan-2-ylmethyl]-3H-imidazo[4,5-b]pyridine-5-carboxylate] | 52 | 120 | 3.3 | 90
15 | O=C(O)c1ccc2nc(CN3CCC(c4ccnc(OCc5ccc(Cl)cc5F)n4)CC3)n(Cc3ncco3)c2c1 [Example 68, 2-[(4-{2-[(4-chloro-2-fluorobenzyl)oxy]pyrimidin-4-yl}piperidin-1-yl)methyl]-1-(1,3-oxazol-2-ylmethyl)-1H-benzimidazole-6-carboxylic acid, trifluoroacetate salt] | 310 | 92 | 8.3 | 77
